Measured values published in article PMC12114375, “Discovery of Hydrazineyl Amide Derivative of Pseudolaric Acid B for Reprogramming Tumor-Associated Macrophages Against Tumor Growth” (Molecules, 2025).

Columns and labels:
Format in all cases: cell-based, mouse
[1] = system: ARG1 mRNA expression in RAW 264.7 cells; test: qRT-PCR of ARG1 mRNA in IL-4/IL-13-stimulated RAW 264.7 cells; details: 12 h, mean ± SD; for mrna remaining at 10 µM: RAW264.7, IL-4/IL-13 (20 ng/mL) plus compound 10 μM; for mrna remaining at 10 µM / ARG1 mRNA Relative Expression (%): stimulated control = 100%; for ARG1 mRNA Relative Expression (%): IL-4/IL-13 (20 ng/mL) plus compound 10 μM
From the text: (§1) We first investigated the impacts of a series of commercially available natural pseudolaric acids or their O-pyranosides (Figure 1) on the pro-tumoral phenotype of TAMs, which play a critical role in anti-tumor immune response modulation. […] In contrast, M1-biased macrophages combat tumor growth and bacterial infections by expressing inducible nitric oxide synthase 2 (NOS2), which catalyzes the production of nitric oxide (NO). Recognizing the pivotal roles of ARG1 and NOS2, we utilized these molecules as key biomarkers and effectors for assessing macrophage immune function. In our experiments, the mouse monocyte–macrophage leukemia cell line RAW 264.7 was induced with IL-4/IL-13 to acquire an M2-like pro-tumoral phenotype. Concurrently, the cells were treated with the pseudolaric acid-related natural products 1–7 at a concentration of 10 μM for 12 h. Additionally, PLX3397 was used as a positive control at a concentration of 0.5 μM. […] As shown in Table 1 and Figure S1A, pseudolaric acid B (1), its deacetoxyl analogue 2 (pseudolaric acid C), and β-D-glucoside 7 substantially attenuated the upregulation of ARG1 mRNA expression induced by IL-4/IL-13, with statistically significant effects. In contrast, bis-carboxylic acids analogs 4 (pseudolaric acid C2) and 6 (demethoxydeacetoxypseudolaric acid B) have no significant impact on ARG1 mRNA expression.
(§2) With these carboxylic acid-modified derivatives in hand, we investigated their impact at 10 μM on ARG1 and NOS2 mRNA expression in RAW 264.7 cells pre-stimulated with IL-4/IL-13 to evaluate the effects on the pro-tumor phenotype of macrophages. […] Further removal of one hydroxyl from the glycerol moiety 15 further enhanced the inhibitory effect on ARG1 expression but had no significant impact on NOS2 expression.
(§3) Total RNA was isolated from cells using the EZ-press RNA Purification Kit (EZBioscience, Suzhou, China) and subjected to reverse transcription with the 5×HiScript II qRT SuperMix II (Vazyme, Nanjing, China). PCR was performed with the 2×ChamQ Universal SYBR qPCR Master Mix (Vazyme, Nanjing, China). All primers for qRT-PCR are described in Table S1. The 2^−∆∆Ct method was utilized to calculate the fold change in gene expression, with the expression levels in the stimulated group set as the baseline for normalization.

[2] = system: NOS2 mRNA expression in RAW 264.7 cells; test: qRT-PCR of NOS2 mRNA in IL-4/IL-13-stimulated RAW 264.7 cells; details: 12 h, mean ± SD; for activity at 10 µM: RAW264.7, IL-4/IL-13 (20 ng/mL) plus compound 10 μM; for activity at 10 µM / NOS2 mRNA Relative Expression (%): stimulated control = 100%; for NOS2 mRNA Relative Expression (%): IL-4/IL-13 (20 ng/mL) plus compound 10 μM
From the text: as §1, §2, §3

Raw264.7 cells = test: Cell viability (CCK-8) of RAW264.7 cells; details: IL-4/IL-13 plus compound 10 μM, 12 h
Protocol: Cells were seeded in 96-well tissue culture plates. On the next day, cells were exposed to various concentrations of compounds and further cultured for the indicated period. Finally, cell proliferation was determined by using the Cell Counting Kit (CCK-8) (Dojindo, Kumamoto, Japan) assay.
Figure S2. Effects of natural pseudolaric acids 1-4, 6 and their O-pyranosides 5, 7 as well as the derivatives 8-18 o f 1 on Raw264.7 cell viability. Raw264.7 cells were treated with IL-4/IL-13 alone or combined with indicated compounds (10 μM) for 12 h. After incubation, the cell viability was determined using a cell counting kit (CCK-8, Dojindo, Japan) assay.
(1 picture or pasted object on this page, not shown here)

[3] = Mus musculus, read-out: ARG1 mRNA Relative Expression (%)
[4] = Mus musculus, read-out: NOS2 mRNA Relative Expression (%)

| Molecule | mrna remaining at 10 µM [1, 3] | activity at 10 µM [2, 4] | further results |
| --- | --- | --- | --- |
| FC(F)(F)c1ccc(CNc2ccc(Cc3c[nH]c4ncc(Cl)cc34)cn2)cn1 [PLX3397, reference compound] | – | – | mrna remaining at 0.5 µM ([1]; Mus musculus, RAW264.7, IL-4/IL-13 (20 ng/mL) plus positive control 0.5 μM, read-out: ARG1 mRNA Relative Expression (%)): 3.2 ± 2.4%; activity at 0.5 µM ([2]; Mus musculus, RAW264.7, IL-4/IL-13 (20 ng/mL) plus positive control 0.5 μM, read-out: NOS2 mRNA Relative Expression (%)): 193 ± 10.2% |
| COC(=O)C1=CC[C@@]23CC[C@@H]([C@@](C)(/C=C/C=C(\C)C(=O)O)OC2=O)[C@@]3(O)CC1 [compound 2, pseudolaric acid C, reference compound] | 17.3 ± 9.1% | 80.1 ± 15.6% | – |
| CC(=O)O[C@]12CCC(C)=CC[C@]13CC[C@H]2[C@@](C)(/C=C/C=C(\C)C(=O)O)OC3=O [compound 3, pseudolaric acid A, reference compound] | 343 ± 27.9% | 297 ± 6.8% | – |
| CC(=O)O[C@]12CCC(C(=O)O)=CC[C@]13CC[C@H]2[C@@](C)(/C=C/C=C(\C)C(=O)O)OC3=O [compound 4, pseudolaric acid C2, reference compound] | 87.4 ± 25.4% | 131 ± 14.5% | – |
| CC(=O)O[C@]12CCC(C)=CC[C@]13CC[C@H]2[C@@](C)(/C=C/C=C(\C)C(=O)O[C@@H]1O[C@H](CO)[C@@H](O)[C@H](O)[C@H]1O)OC3=O [compound 5, reference compound] | 16.2 ± 9.2% | 158 ± 17.2% | – |
| COC(=O)C1=CC[C@@]23CC[C@@H]([C@@](C)(/C=C/C=C(\C)C(=O)O[C@@H]4O[C@H](CO)[C@@H](O)[C@H](O)[C@H]4O)OC2=O)[C@@]3(OC(C)=O)CC1 [compound 7, reference compound] | 21.2 ± 13% | 307 ± 36.2% | cell viability (Raw264.7 cells): only a minimal reduction in cell viability |
| COC(=O)C1=CC[C@@]23CC[C@@H]([C@@](C)(/C=C/C=C(\C)C(=O)NCC(F)(F)F)OC2=O)[C@@]3(OC(C)=O)CC1 [compound 9, Methyl (3R,4S,4aS,9aR)-4a-acetoxy-3-methyl-3-((1E,3E)-4-methyl-5-oxo-5-((2,2,2-trifluoroethyl)amino)penta-1,3-dien-1-yl)-1-oxo-3,4,4a,5,6,9-hexahydro-1H-4,9a-ethanocyclohepta[c]pyran-7-carboxylate] | 7.4% | 149% | NOS2 mRNA Relative Expression (%) [2]: 148.7 ± 14.1% |
| COC(=O)C1=CC[C@@]23CC[C@@H]([C@@](C)(/C=C/C=C(\C)C(=O)NCC(C)O)OC2=O)[C@@]3(OC(C)=O)CC1 (stereo partly drawn) [compound 10, Methyl(3R,4S,4aS,9aR)-4a-acetoxy-3-((1E,3E)-5-((2-hydroxypropyl)amino)-4-methyl-5-oxopenta-1,3-dien-1-yl)-3-methyl-1-oxo-3,4,4a,5,6,9-hexahydro-1H-4,9a-ethanocyclohepta[c]pyran-7-carboxylate] | 7.5% | 103 ± 7.2% | – |
| COC(=O)C1=CC[C@@]23CC[C@@H]([C@@](C)(/C=C/C=C(\C)C(=O)NCCN(CCO)CCO)OC2=O)[C@@]3(OC(C)=O)CC1 [compound 13, Methyl(3R,4S,4aS,9aR)-4a-acetoxy-3-((1E,3E)-5-((2-(bis(2-hydroxyethyl)amino)ethyl)amino)-4-methyl-5-oxopenta-1,3-dien-1-yl)-3-methyl-1-oxo-3,4,4a,5,6,9-hexahydro-1H-4,9a-ethanocyclohepta[c]pyran-7-carboxylate] | 72.2 ± 10.2% | 134 ± 5% | – |
| COC(=O)C1=CC[C@@]23CC[C@@H]([C@@](C)(/C=C/C=C(\C)C(=O)NC(CO)(CO)CO)OC2=O)[C@@]3(OC(C)=O)CC1 [compound 14, Methyl(3R,4S,4aS,9aR)-4a-acetoxy-3-((1E,3E)-5-((1,3-dihydroxy-2-(hydroxymethyl)propan-2-yl)amino)-4-methyl-5-oxopenta-1,3-dien-1-yl)-3-methyl-1-oxo-3,4,4a,5,6,9-hexahydro-1H-4,9a-ethanocyclohepta[c]pyran-7-carboxylate] | 42.2 ± 9.5% | 136 ± 8% | – |
| COC(=O)C1=CC[C@@]23CC[C@@H]([C@@](C)(/C=C/C=C(\C)C(=O)OC4O[C@H](COC(C)=O)[C@@H](OC(C)=O)C(OC(C)=O)[C@H]4OC(C)=O)OC2=O)[C@@]3(OC(C)=O)CC1 (stereo partly drawn) [compound 16, (3R,5R,6R)-2-(((2E,4E)-5-((3R,4S,4aS,9aR)-4a-Acetoxy-7-(methoxycarbonyl)-3-methyl-1-oxo-3,4,4a,5,6,9-hexahydro-1H-4,9a-ethanocyclohepta[c]pyran-3-yl)-2-methylpenta-2,4-dienoyl)oxy)-6-(acetoxymethyl)tetrahydro-2H-pyran-3,4,5-triyl triacetate] | 80 ± 27.5% | 95.2 ± 23% | – |
| COC(=O)C1=CC[C@@]23CC[C@@H]([C@@](C)(/C=C/C=C(\C)C(=O)O[C@H]4OC[C@@H](OC(C)=O)[C@H](OC(C)=O)[C@H]4OC(C)=O)OC2=O)[C@@]3(OC(C)=O)CC1 [compound 17, (2R,3R,4S,5R)-2-(((2E,4E)-5-((3R,4S,4aS,9aR)-4a-Acetoxy-7-(methoxycarbonyl)-3-methyl-1-oxo-3,4,4a,5,6,9-hexahydro-1H-4,9a-ethanocyclohepta[c]pyran-3-yl)-2-methylpenta-2,4-dienoyl)oxy)tetrahydro-2H-pyran-3,4,5-triyl triacetate] | 32.3 ± 19.2% | 91.3 ± 6.9% | – |
| (2E,4E)-5-((3R,4S,4aS,9aR)-4a-acetoxy-7-(methoxycarbonyl)-3-methyl-1-oxo-3,4,4a,5,6,9-hexahydro-1H-4,9a-ethanocyclohepta[c]pyran-3-yl)-2-methylpenta-2,4-dienoic acid [compound 15] | – | – | ARG1 mRNA Relative Expression (%) [1]: 18.7 ± 18.0%; NOS2 mRNA Relative Expression (%) [2]: 130.3 ± 5.8% |
| (2R,3S,4S,5R,6R)-6-(((2E,4E)-5-((3R,4S,4aS,9aR)-4a-Acetoxy-7-(methoxycarbonyl)-3-methyl-1-oxo-3,4,4a,5,6,9-hexahydro-1H-4,9a-ethanocyclohepta[c]pyran-3-yl)-2-methylpenta-2,4-dienoyl)oxy)tetrahydro-2H-pyran-2,3,4,5-tetrayl tetraacetate [compound 18] | – | – | ARG1 mRNA Relative Expression (%) [1]: 42.6 ± 30.2%; NOS2 mRNA Relative Expression (%) [2]: 58.7 ± 4.5% |
